Experimental data reported in patent publication US20230109839A1, “THERAPEUTIC AGENT FOR TAUOPATHIES” (SUMITOMO PHARMA CO., LTD., priority 2020, published 2023).

Target: T1, human Nav1.1 (Homo sapiens, UniProt P35498)
T1 construct: host or cells: HEK293
Assay: Amplification of Nav1.1-derived voltage-gated sodium current (Nav1.1 current), automated patch clamp (Test 1)
Type: cell-based
Details: for activation at 1 µM: HEK293, concentration for evaluation 1 μM; for activation at 0.3 µM: HEK293, concentration for evaluation 0.3 μM
Outline: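 HEK293 cells stably expressing human Nav1.1, restricted to cells with >500 pA current, were recorded by automated voltage-clamp patch clamp with a ramp voltage stimulus. Compounds were applied in HEPES-buffered extracellular solution with 1% DMSO. Amplification (%) = 100×(peak or AUC after/before compound)−100.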

[1] = Concentration for evaluation 1 μM, HEK293 cell line stably expressing human Nav1.1
[2] = concentration for evaluation 1 μM, HEK293 stably expressing human Nav1.1
[3] = concentration for evaluation 50 μM, HEK293 stably expressing human Nav1.1
[4] = HEK293 stably expressing human Nav1.1, read-out: Nav1.1 current amplification rate (%)

Row | Nav1.1 current amplification rate (%) [2] [%] | Structure (SMILES) | other results
1 | – | O=C(Cn1ncc2cnc(N3CCC4(CC4)C(F)(F)C3)nc21)Nc1ccn2ncnc2c1 [Example 792] | Nav1.1 current amplification rate (%) [1]: 161%
2 | – | CC1CCC(F)(F)CN1c1ncc2cnn(CC(=O)Nc3ccn4ncnc4c3)c2n1 (centres unmarked) [Example 793] | Nav1.1 current amplification rate (%) (Concentration for evaluation 50 μM, HEK293 cell line stably expressing human Nav1.1): 55%
3 | – | CN(c1ncc2cnn(CC(=O)Nc3ccn4ncnc4c3)c2n1)C1CC1 [Example 794] | Nav1.1 current amplification rate (%) [1]: 27%
4 | 66 | CN(c1ncc2cnn(CC(=O)Nc3ccn4ncnc4c3)c2n1)C1CCC(F)(F)C1 (centres unmarked) [Example 796] | –
5 | 66 | CN(c1ncc2cnn(CC(=O)Nc3ccn4ncnc4c3)c2n1)C1CCC1 [Example 797] | –
6 | 193 | CN(CC1CCC1)c1ncc2cnn(CC(=O)Nc3ccn4ncnc4c3)c2n1 [Example 798] | –
7 | 35 | CN(CC1CC(F)(F)C1)c1ncc2cnn(CC(=O)Nc3ccn4ncnc4c3)c2n1 [Example 799] | –
8 | 55 | CN(CC1CC1)c1ncc2cnn(CC(=O)Nc3ccn4ncnc4c3)c2n1 [Example 800] | –
9 | 122 | CN(c1ncc2cnn(CC(=O)Nc3ccn4ncnc4c3)c2n1)C1CCCC1(F)F (centres unmarked) [Example 801] | –
10 | 111 | CN(c1ncc2cnn(CC(=O)Nc3ccn4ncnc4c3)c2n1)C1CC2(CC2)C1 [Example 802] | –
11 | 93 | CN(CC1(C)CC1)c1ncc2cnn(CC(=O)Nc3ccn4ncnc4c3)c2n1 [Example 804] | –
12 | 373 | CC1CC=C(c2ncc3cnn(CC(=O)Nc4ccc5cncnc5c4)c3n2)CC1 (centres unmarked) [Example 805] | –
13 | 262 | CC1CCN(c2ncc3cnn(CC(=O)Nc4ccc5cncnc5c4)c3n2)CC1 [Example 806] | –
14 | 86 | O=C(Cn1ncc2cnc(N3CCC4(CCC4)C3)nc21)Nc1ccc2cncnc2c1 [Example 807] | –
15 | 226 | O=C(Cn1ncc2cnc(N3CCC4(CCC4)CC3)nc21)Nc1ccc2cncnc2c1 [Example 808] | –
16 | – | CC1(C)CCN(c2ncc3cnn(CC(=O)Nc4ccc5cncnc5c4)c3n2)CC1 [Example 809] | Nav1.1 current amplification rate (%) (concentration for evaluation 10 μM, HEK293 stably expressing human Nav1.1): 64%
17 | 86 | O=C(Cn1ncc2cnc(C3=CCC(F)(F)CC3)nc21)Nc1ccc2cncnc2c1 [Example 810] | –
18 | 23 | O=C(Cn1ncc2cnc(N3CCC4(CCC4)CC3)nc21)Nc1ccc2ncnn2c1 [Example 811] | –
19 | 13 | O=C(Cn1ncc2cnc(C3=CCC(F)(F)CC3)nc21)Nc1ccc2ncnn2c1 [Example 812] | –
20 | 105 | O=C(Cn1ncc2cnc(N3CCC4(CC4)C(F)(F)C3)nc21)Nc1ccc2ncnn2c1 [Example 813] | –
21 | 87 | CN(c1ncc2cnn(CC(=O)Nc3ccc4ncnn4c3)c2n1)C1CCCC1 [Example 814] | –
22 | 86 | CC1CCN(c2ncc3cnn(CC(=O)Nc4ccc5ncnn5c4)c3n2)CC1(F)F (centres unmarked) [Example 815] | –
23 | 13 | O=C(Cn1ncc2cnc(N3CCC4C(C3)C4(F)F)nc21)Nc1ccc2ncnn2c1 (centres unmarked) [Example 816] | –
24 | 21 | CN(c1ncc2cnn(CC(=O)Nc3ccc4ncnn4c3)c2n1)C1CCC1 [Example 817] | –

Row | Nav1.1 current amplification rate (%) [2] [%] | Structure (SMILES) | other results
25 | – | CN(c1ncc2cnn(CC(=O)Nc3ccc4ncnn4c3)c2n1)C1CC1 [Example 818] | Nav1.1 current amplification rate (%) [3]: 195%
26 | 50 | CN(c1ncc2cnn(CC(=O)Nc3ccc4ncnn4c3)c2n1)C1CC2(CC2)C1 [Example 820] | –
27 | 42 | CN(CC1(C)CC1)c1ncc2cnn(CC(=O)Nc3ccc4ncnn4c3)c2n1 [Example 822] | –
28 | 226 | N#Cc1ccc(NC(=O)Cn2ncc3cnc(N4CCC5(CC5)C(F)(F)C4)nc32)cn1 [Example 823] | –
29 | 240 | O=C(Cn1ncc2cnc(N3CCC4(CC4)C(F)(F)C3)nc21)Nc1ccc(-n2ccnc2)nc1 [Example 824] | –
30 | 30 | COc1ccc(NC(=O)Cn2ncc3cnc(N4CCC5(CC5)C(F)(F)C4)nc32)cn1 [Example 825] | –
31 | 31 | O=C(Cn1ncc2cnc(N3CCC4(CC4)C(F)(F)C3)nc21)Nc1cccnc1 [Example 826] | –
32 | 29 | N#Cc1ncc(NC(=O)Cn2ncc3cnc(N4CCC5(CC5)C(F)(F)C4)nc32)cn1 [Example 827] | –
33 | 108 | N#Cc1cnc(NC(=O)Cn2ncc3cnc(N4CCC5(CC5)C(F)(F)C4)nc32)cn1 [Example 828] | –
34 | 54 | CC(C)c1ccc(NC(=O)Cn2ncc3cnc(N4CCC5(CC5)C(F)(F)C4)nc32)cn1 [Example 829] | –
35 | 54 | N#Cc1ccc(NC(=O)Cn2ncc3cnc(N4CCC5(CC5)C(F)(F)C4)nc32)nc1 [Example 830] | –
36 | – | CC1CCN(c2ncc3cnn(CC(=O)Nc4ccn5ccnc5c4)c3n2)CC1 [Example 831] | activation at 1 µM [4]: 128%
37 | – | CC1CC=C(c2ncc3cnn(CC(=O)Nc4ccn5ccnc5c4)c3n2)CC1 (centres unmarked) [Example 832] | activation at 1 µM [4]: 204%
38 | – | CC1CC=C(c2ncc3cnn(CC(=O)NC4=CC5N=COC5C=C4)c3n2)CC1 (centres unmarked) [Example 833] | activation at 1 µM [4]: 283%
39 | – | O=C(Cn1ncc2cnc(N3CCC4(CCC4)C3)nc21)Nc1ccn2ccnc2c1 [Example 834] | activation at 1 µM [4]: 26%
40 | – | CC1CCN(c2ncc3cnn(CC(=O)N4CCN(c5cccnc5)CC4)c3n2)CC1 [Example 835] | activation at 50 µM (HEK293, concentration for evaluation 50 μM, HEK293 stably expressing human Nav1.1, read-out: Nav1.1 current amplification rate (%)): 118%
41 | – | Cc1cc(NC(=O)Cn2ncc3cnc(N(C)C4CC4)nc32)cc2ncnn12 [Example 836] | activation at 1 µM [4]: 19%
42 | – | Cc1cc(NC(=O)Cn2ncc3cnc(N(C)C4CCCC4)nc32)cc2ncnn12 [Example 837] | activation at 1 µM [4]: 103%
43 | – | CN(c1ncc2cnn(CC(=O)N3CCc4c(-c5ccnnc5)cccc43)c2n1)C1CC1 [Example 838] | activation at 0.3 µM [4]: 122%
44 | – | Cc1cc(NC(=O)Cn2ncc3cnc(N(C)C4CCCC4(F)F)nc32)cc2ncnn12 (centres unmarked) [Example 839] | activation at 1 µM [4]: 143%
45 | – | CN(CC1CCC1)c1ncc2cnn(CC(=O)Nc3ccc(C#N)nc3)c2n1 [Example 840] | activation at 1 µM [4]: 164%
46 | – | CN(c1ncc2cnn(CC(=O)Nc3cnc4cccnc4c3)c2n1)C1CC1 [Example 841] | activation at 1 µM [4]: 28%
47 | – | CN(c1ncc2cnn(CC(=O)Nc3cnc4cccnc4c3)c2n1)C1CC2(CC2)C1 [Example 842] | activation at 1 µM [4]: 87%
48 | – | CC1CCN(c2ncc3cnn(CC(=O)Nc4ccc(C#N)nc4)c3n2)CC1(F)F (centres unmarked) [Example 843] | activation at 1 µM [4]: 171%

Row | Nav1.1 current amplification rate (%) [2] [%] | Structure (SMILES) | other results
49 | – | CN(c1ncc2cnn(CC(=O)Nc3cnc4cccnc4c3)c2n1)C1CC(C)(C)C1 [Example 844] | activation at 1 µM [4]: 221%
50 | – | CN(c1ncc2cnn(CC(=O)Nc3ccc(C#N)nc3)c2n1)C1CC2(CC2)C1 [Example 845] | activation at 1 µM [4]: 76%
51 | – | CN(CC1CCC1)c1ncc2cnn(CC(=O)Nc3cnc4cccnc4c3)c2n1 [Example 846] | activation at 1 µM [4]: 158%
52 | – | CC1CCN(c2ncc3cnn(CC(=O)Nc4cnc(C#N)cn4)c3n2)CC1(F)F (centres unmarked) [Example 847] | activation at 1 µM [4]: 132%
53 | – | CN(c1cnc2cnn(CC(=O)Nc3ccc4ncncc4c3)c2n1)C1CC2(CC2)C1 [Example 848] | activation at 0.3 µM [4]: 22%
54 | – | CN(c1ncc2cnn(CC(=O)Nc3cnc4cccnc4c3)c2n1)C1CCCC1 [Example 849] | activation at 0.3 µM [4]: 57%
55 | – | CC1CCN(c2ncc3cnn(CC(=O)Nc4ccc(C#N)cn4)c3n2)CC1(F)F (centres unmarked) [Example 850] | activation at 1 µM [4]: 79%
56 | – | CN(CC1(C)CC1)c1ncc2cnn(CC(=O)Nc3cnc4cccnc4c3)c2n1 [Example 851] | activation at 1 µM [4]: 89%
57 | 111 | CC1CC=C(c2ccc3cnn(CC(=O)Nc4ccn5ncnc5c4)c3n2)CC1 (centres unmarked) [Example 852] | –
58 | 82 | CC1CCN(c2ccc3cnn(CC(=O)Nc4ccn5ncnc5c4)c3n2)CC1 [Example 853] | –
59 | 45 | O=C(Cn1ncc2ccc(N3CCC4(CCC4)CC3)nc21)Nc1ccn2ncnc2c1 [Example 854] | –
60 | 93 | O=C(Cn1ncc2ccc(N3CCC4(CC3)CC4)nc21)Nc1ccn2ncnc2c1 [Example 855] | –
61 | 50 | CC1(C)CCN(c2ccc3cnn(CC(=O)Nc4ccn5ncnc5c4)c3n2)CC1 [Example 856] | –
62 | 18 | CC1(C)CCN(c2ccc3cnn(CC(=O)Nc4ccn5ncnc5c4)c3n2)C1 [Example 857] | –
63 | – | CC1(C)CN(c2ccc3cnn(CC(=O)Nc4ccn5ncnc5c4)c3n2)C1 [Example 859] | Nav1.1 current amplification rate (%) [3]: 39%
64 | 50 | O=C(Cn1ncc2ccc(C3=CCC(F)(F)CC3)nc21)Nc1ccn2ncnc2c1 [Example 860] | –
65 | 78 | CC(C)CN(C)c1ccc2cnn(CC(=O)Nc3ccn4ncnc4c3)c2n1 [Example 861] | –
66 | 97 | CN(c1ccc2cnn(CC(=O)Nc3ccn4ncnc4c3)c2n1)C1CCCC1 [Example 862] | –
67 | 49 | O=C(Cn1ncc2ccc(N3CCC4(CC4)C(F)(F)C3)nc21)Nc1ccn2ncnc2c1 [Example 863] | –
68 | 160 | CC1CC=C(c2ccc3cnn(CC(=O)Nc4ccn5ccnc5c4)c3n2)CC1 (centres unmarked) [Example 864] | –
69 | 14 | O=C(Cn1ncc2ccc(-c3ccc(F)cc3F)nc21)Nc1ccn2ccnc2c1 [Example 865] | –
70 | 16 | O=C(Cn1ncc2ccc(-c3ccc(F)cc3)nc21)Nc1ccn2ccnc2c1 [Example 866] | –
71 | 65 | O=C(Cn1ncc2ccc(C3=CCC(F)(F)CC3)nc21)Nc1ccn2ccnc2c1 [Example 867] | –
